Data as given in article PMC7582656, “The Hirudo Medicinalis Microbiome Is a Source of New Antimicrobial Peptides” (International Journal of Molecular Sciences, 2020).
Values after ≈ are worked out from the molar mass of the structure shown. “Also recorded” adds a separate entry of the source. Like-named read-outs stand apart in the source and are kept apart here. Where no end group is shown, it is not given here.

What was measured:
[1] = tested on: B. subtilis 168HT; type: cell-based, Bacillus subtilis
Protocol: (§1) The minimum inhibitory concentration (MIC) of peptides was determined by the standard microtiter dilution method, as performed previously. Briefly, the MIC was determined by growing the microorganisms in 96-well microtitration plates in the presence of a two-fold serial dilution of the peptides. […] Mueller Hinton broth (MHB, BD Difco, Thermo Fisher Scientific Inc., Waltham, MA, USA) was used for all cultures, including Bacillus subtilis 168HT, Staphylococcus aureus ST 88, Staphylococcus haemolyticus 527 (clinical isolate), and Escherichia coli K12 substr. MG1655 strains. Each experiment was performed in triplicate with positive (melittin (Merck Company Inc., Kenilworth, NJ, USA)) and negative (without peptide) inhibition controls.

[2] = tested on: S. haemolyticus 527; type: cell-based, Staphylococcus haemolyticus
Protocol: as §1

[3] = tested on: McCoy cells; experiment: LIVE/DEAD viability/cytotoxicity assay, fluorescent images; type: cell-based, mouse; details: 24 h
Protocol: (§2) The cytotoxicity of peptides towards the mouse fibroblast cell line McCoy was determined via the LIVE/DEAD™ Viability/Cytotoxicity Kit (Thermo Fisher Scientific Inc., Waltham, MA, USA) according to the manufacturer′s recommendations, as performed previously. […] Melittin was used as a negative control, and McCoy cells treated without peptides were used as a positive control. After peptide exposure, cells were washed and then stained with PBS containing calcein AM and ethidium homodimer–1 at concentrations of 0.3 and 1.25 μM, respectively, for 30 min at 37 °C. After staining, the cells were washed twice with PBS. The images were captured using an epifluorescence microscope with the respective filter cubes from 10 occasionally selected fields of view captured for each well with a 20× objective. Images were captured for FITC and TRITC channels. The numbers of cells in both channels were quantified with the ImageJ software (version 1.48; RSB).

[4] = tested on: McCoy cells; experiment: Cytotoxicity by live/dead assay and lactate dehydrogenase assay together; type: cell-based, mouse; details: 24 and 48 h, peptide at 4x MIC, live/dead fluorescence imaging and LDH assay
Protocol: We applied two techniques: Fluorescence imaging of dead and living cells (live/dead viability/cytotoxicity assay, Table 3, Figure S2) and a colorimetric assay (lactate dehydrogenase assay, Figure S3).
as §2
The cytotoxicity of peptides was also measured by a lactate dehydrogenase (LDH) assay kit (Merck Company Inc., Kenilworth, NJ, USA) according to the manufacturer′s recommendations. Briefly, 100 μL of McCoy cells per well were seeded on 96-well culture plates at a density of 2 × 10^5 cells/mL and incubated for 24 h at 37 °C with peptides at a final concentration equal to 4× MIC. Melittin was used as a negative control, and McCoy cells treated without peptides were used as a positive control. The growth medium without peptides was used as blank absorbance readings. After the peptide treatment, the plate with cells was centrifuged for 10 min at 900 g, and 50 μL of medium from each well was transferred to another plate. Fifty microlitres of the prepared LDH kit solution were added to each well. All manipulations were performed in the dark. The absorbance of the wells was measured after 15 min incubation in the dark at wavelengths of 495 and 690 nm using a Multiscan Ascent microtiter plate reader (Thermo Fisher Scientific Inc., Waltham, MA, USA). The specific absorbance of each sample was calculated according to the equation:Absorbance = A495 nm (Test) − A495 nm (Blank) − A690 nm (Test)
The percentage of cell viability was recalculated according to the control values.

[5] = tested on: S. aureus ST 88; type: cell-based, Staphylococcus aureus
Protocol: as §1

[6] = tested on: E. coli ATCC25922; details: ref Porto et al. [32]; cited from earlier work
From the text: According to numerous studies, the actions of AMPs on bacteria are diverse and appear to be dependent on the target and the peptide concentration. The speed of the antimicrobial effect of different AMPs can vary greatly.

[7] = tested on: E. coli K12 substr MG1655; type: cell-based, Escherichia coli; details: two-fold serial dilution, 96-well plates, Mueller Hinton broth, triplicate
Protocol: as §1

Compound	MIC ([1]; 168HT) [µM]	MIC [2]; 527 [µM]	Cell Viability, % ([3]; 4 MIC) [%]	Cytotoxicity (in words) [4]	MIC ([5]; ST 88) [µM]	Time of lytic effect [6] [min]	Time to kill E. coli ATCC25922 [6] [s]	MIC ([1]; B. subtilis 168HT, two-fold serial dilution, 96-well plates, Mueller Hinton broth, triplicate) [µM]	MIC ([2]; S. haemolyticus 527 (clinical isolate), two-fold serial dilution, 96-well plates, Mueller Hinton broth, triplicate) [µM]	Cell Viability, % ([3]; McCoy cells, 37 °C, peptide at 4× MIC, calcein AM / ethidium homodimer-1 staining, fluorescent images, mean ± SD (n = 3)) [%]	MIC [7] [µM]	MIC ([5]; S. aureus ST 88 (MRSA), two-fold serial dilution, 96-well plates, Mueller Hinton broth, triplicate) [µM]
IVKRFFRISYKLQSLKIIKGKRTFT [pept_84]	5.3	5.3	11.2 ± 7.4	reduced the cell viability to a lesser but still severe degree	>100	–	–	–	–	–	–	–
FVKILAKLVNYAKN [pept_970]	19.8	>100	2.7 ± 2.1	strong cytotoxicity comparable to melittin	>100	–	–	–	–	–	–	–
FLIGKAIKRKFCLRSVWNA-NH2 [pept_1545]	7.2	–	98.7 ± 1.3	did not exert any inhibition of cell growth even after 48 h; also recorded: did not cause cell death	>100	–	–	–	–	–	–	–
guavanin 2	–	–	–	–	–	10	–	–	–	–	–	–
VLIRGLIHMLRGG [pept_148]	22.4	>100	98.3 ± 0.9	did not exert any inhibition of cell growth even after 48 h; also recorded: did not cause cell death	>100	–	–	–	–	–	–	–
KKGKSFKQLHIIVHLVKSWLRTILTHI [pept_352]	10	10	0.2 ± 0.1	strong cytotoxicity comparable to melittin	19.9	–	–	–	–	–	–	–
CC[C@H](C)[C@H](NC(=O)CN)C(=O)NCC(=O)N[C@@H](C)C(=O)N[C@H](C(=O)N[C@@H](CC(C)C)C(=O)N[C@@H](CCCCN)C(=O)N[C@H](C(=O)N[C@@H](CC(C)C)C(=O)N[C@H](C(=O)N[C@H](C(=O)NCC(=O)N[C@@H](CC(C)C)C(=O)N1CCC[C@H]1C(=O)N[C@@H](C)C(=O)N[C@@H](CC(C)C)C(=O)N[C@H](C(=O)N[C@@H](CO)C(=O)N[C@@H](Cc1c[nH]c2ccccc12)C(=O)N[C@H](C(=O)N[C@@H](CCCCN)C(=O)N[C@@H](CCCNC(=N)N)C(=O)N[C@@H](CCCCN)C(=O)N[C@@H](CCCNC(=N)N)C(=O)N[C@@H](CCC(N)=O)C(=O)N[C@@H](CCC(N)=O)C(N)=O)[C@@H](C)CC)[C@@H](C)CC)[C@@H](C)O)[C@@H](C)O)C(C)C)C(C)C [Melittin, melittin, reference compound]	–	–	–	–	–	–	10	1.5 (≈ 4.27 µg/mL)	5.7 (≈ 16.2 µg/mL)	0.3 ± 0.1	5.7 (≈ 16.2 µg/mL)	1.5 (≈ 4.27 µg/mL)
IGRHFKRRNSIWGICWF [pept_1303]	14.8	–	25.1 ± 8.3	reduced the cell viability to a lesser but still severe degree	>100	–	–	–	–	–	–	–
